Tests used:
[1] = system: ATF-2; assay: Luminex signalling assay in SH-SY5Y; assay type: cell-based, human; conditions: G79 100 ng/ml and 20 μg/ml, BDNF 20 ng/ml; 30 min, 1 h, 2 h, 6 h
Excerpt: (§1) The human neuroblastoma cell line SH-SY5Y was used to perform Luminex signalling assays using the 10-Plex MAPK/SAPK Signaling Kit-Phosphoprotein (Millipore). This cell line expresses the TrkB receptor and the MAPK/SAPK signalling pathway is typically activated by the tyrosinkinase receptors. The phosphoprotein antibodies included into the kit are the following: ERK/MAP kinase (Thr185/Tyr187); STAT-1 (Tyr701); JNK (Thr183/Tyr185); MEK-1 (Ser212); ATF-2 (Thr69/71); p53 (Ser15); HSP27 (Ser78); c-Jun (Ser73); p38 (Thr180/Tyr182), p70 S6 kinase (Thr412); IkBα (Ser32) (purchased from Millipore).
(§2) The cells were propagated and then seeded into 24-well plates (30.000 cell/well). After 24 hours, the cells were treated with two different concentrations of NGF-receptor agonist G79: 100 ng/ml and 20 μg/ml. After adding G79 into the medium, the cells were collected in the lysis buffer of the kit at the following time points: 30 min, 1 h, 2 h, and 6 h. The assay was performed in this way to assess both time and dose effects comparing the treated samples with the untreated cells used as negative controls (unstimulated SH-SY5Y cells). BDNF was used as positive control at the concentration 20 ng/ml, which is the best working concentration known in literature. In the Luminex plate, each sample was added into a well in duplicate. After adding all the samples, the specific positive and negative controls of phosphorilation, included in the Luminex kit, were added. The assay buffer was also added in duplicate, as a background controls.
(§3) In the circles are the activated factors, while in the grey circles are the tested factors. Its effects of the SY-SY5Y cell line in the phosphorilation of several pathways were assessed using xMAP assay from Luminex. […] The levels of activation are expressed as Median Fluorescence Intensity (MFI).

[2] = system: HSP-27; assay: Luminex signalling assay in SH-SY5Y; assay type: cell-based, human; conditions: G79 100 ng/ml and 20 μg/ml, BDNF 20 ng/ml; 30 min, 1 h, 2 h, 6 h
Excerpt: as §1, §2, §3

[3] = system: JNK; assay: Luminex signalling assay in SH-SY5Y; assay type: cell-based, human; conditions: G79 100 ng/ml and 20 μg/ml, BDNF 20 ng/ml; 30 min, 1 h, 2 h, 6 h
Excerpt: as §1, §2, §3

[4] = system: STAT-1; assay: Luminex signalling assay in SH-SY5Y; assay type: cell-based, human; conditions: G79 100 ng/ml and 20 μg/ml, BDNF 20 ng/ml; 30 min, 1 h, 2 h, 6 h
Excerpt: as §1, §2, §3

[5] = system: iNOS; assay: Neuroinflammation in vitro model, organotypic cerebellar culture challenged with LPS, real-time PCR; assay type: cell-based, mice; conditions: G79 100 ng/ml pre-treatment; 24 h after the challenge with LPS
Excerpt: Neonates mice (day 8 after birth (P8)) were decapitated after anaesthetic IP injection and whole brains were removed aseptically. Cerebellum was separated from the rest of the brain and placed on a metal vibratome plate. Once the cerebellum was attached to the surface of the plate, 400 μm sagittal sections were cut using the vibratome. The slices were then transferred with a plastic Pasteur pipette to a cell culture plate containing an organotypic culture medium (5% CO2 in 50% basal medium with Earle's salt, 25% Hank's buffered salt solution, 25% inactivated horse serum, 5 mg/ml glucose, 0.25 mM L-glutamine and 25 μg/ml penicillin/streptomycin). After separating and isolating each slice, the cerebellar slices were then transferred to 6-well plates (3 slices for each well) containing a 30 mm culture plate insert with 0.4 μm pores (Millipore) and 1 ml full culture medium, pre-conditioned by incubation for at least 2 hours at 37° C., and 5% CO2 was added into each well below the insert. […]
Organotypic slices collected from the LPS stimulation experiment were homogenized in RNA lysis buffer. […] Primers and target-specific fluorescence-labeled TaqMan probes were purchased from Applied Biosystems (TaqMan Gene Expression assays). […] The expression of the gene tested was quantified relative to the level of the housekeeping gene GAPDH.

[6] = PAMPA model of passive BBB permeability; assay type: in vitro ADME; conditions: passive transport
Experimental: PAMPA is used as an in vitro model of passive BBB permeability. An artificial membrane immobilized on a filter is placed between a donor and acceptor compartment. At the start of the test, a drug is introduced in the donor compartment. Following the permeation period, the concentration of the drug in the donor and acceptor compartments are measured using UV spectroscopy. Therefore the permeability of any compound with a UV chromophore can be determined by this method.
The tested compound stock solutions were diluted 200-fold in universal buffer at pH 7.4 and added to the donor wells. The filter membrane was coated with PBL in dodecane and the acceptor well was filled with pH 7.4 buffer. The acceptor filter plate was carefully put on the donor plate to form a ‘sandwich’ (consisting of the aqueous donor with test the compound on the bottom, an artificial lipid membrane in the middle, and an aqueous acceptor on the top). The test compound diffused from the donor well through the lipid membrane and into the acceptor well. The ‘sandwich’ was left undisturbed for 18 hrs while the permeation occurred. The concentration of the test compound in the acceptor, the donor, and the reference wells was determined using the UV plate reader. Effective permeability (Pe) of each compound was calculated by using the pION PSR4p software. Samples were analyzed in triplicate and the average of the three runs was reported. Quality control standards were run with each sample set to monitor the consistency of the analysis set.

CC(C)CN(CC(=O)N(CCCN1CCCC1=O)CC(N)=O)C(=O)CNCCc1ccccc1F [Compound G79, [N-(2-(2′-Fluorophenyl)ethyl)glycyl]-[N-(2-methylpropyl)glycyl]-N-[3-(2′-oxopyrrolidinyl)propyl]glycinamide]
ATF-2 phospho-activation (MFI) compared to unstimulated control [1]: significantly activated at 6 h after G79 treatment (20 μg/ml)
HSP-27 phospho-activation (MFI) compared to unstimulated control [2]: significantly activated at 1 h after G79 treatment (both at 20 μg/ml and 100 ng/ml)
JNK phospho-activation (MFI) compared to unstimulated control [3]: significantly activated at 6 h after G79 treatment (both at 20 μg/ml and 100 ng/ml)
STAT-1 phospho-activation (MFI) compared to unstimulated control [4]: significantly activated at 6 h after G79 treatment (20 μg/ml)
expression of iNOS compared to placebo pre-treated samples [5]: decrease in the expression of iNOS
crossing the BBB in the PAMPA model (in words) [6]: unable to cross the BBB in the PAMPA model

From patent US10106577B2, “Agonists of neurotrophin receptors and their use as medicaments” (BIONURE FARMA, S.L., priority 2010, dated 2018)
